Laboratory results taken from PubChem BioAssay AID2467 (Broad Institute, 2010).
Values joined by “and” are separate entries in the source; they are usually repeats but may differ in a detail not shown here. Equal entries are not always repeated. Records with an inconclusive call do not appear. Active and inactive are the calls of the source. The rule behind the calls is not given here.

System: C. albicans growth with fluconazole, fluorescence
Assay: fluconazole-exposed Candida albicans growth modulators – fluorescence, retest, confirmation (AID 2467)

Compound | EC50
NC(=NCCCCCCN=C(N)/N=C(\N)Nc1ccc(Cl)cc1)/N=C(\N)Nc1ccc(Cl)cc1 | 635 nM and 308 nM and 649 nM
c1cnc2c(c1)ccc1cccnc12 | > 3800 nM (inactive)
